Assay results taken from patent US20230372313A1, “METHODS FOR REDUCING GLYCOSPHINGOLIPID CONCENTRATION IN BRAIN TISSUE AND METHODS OF TREATMENT OF NEURODEGENERATIVE DISEASES INVOLVING THE SAME” (GENZYME CORPORATION, priority 2020, published 2023).

Tested on: glucosylceramide (GL-1)
Test: CSF glucosylceramide (GL-1) levels, pharmacodynamics
Format: in vivo, human
Source text: Analyses were based on all available data from participants who enrolled in part 1 of the trial and were randomised to receive either Compound 2 or placebo for up to 52 weeks for Japanese participants and 36 weeks for the ROW population. As part 1 was an exploratory, dose-escalation study, the sample size was not based on a statistical power calculation. Participants included in the primary safety analyses were those who were randomized and received at least one dose of Compound 2 or placebo. A data monitoring committee was responsible for overseeing the safety of patients and the risk/benefit ratio throughout the study. Duration of exposure to Compound 2 was different among the doses, as per the sequential cohort design, with the low- and high-dose cohorts commencing the study first and last, respectively. For pharmacokinetics, plasma parameters were calculated using noncompartmental methods, from plasma Compound 2 concentrations obtained after single dose administration. AUC0-24 and AUC0-48 were calculated using the trapezoidal method over a predefined time period of 24 hours or 48 hours, respectively. CLss/F was calculated using the following equation: CLss/F=Dose/AUCτ, where τ is the dosing interval. For pharmacodynamics, percent reduction of plasma or CSF GL-1 from baseline was calculated as (value−baseline)/baseline×100. Formal statistical testing was not conducted on MDS-UPDRS scale assessments.
In exploratory analyses, Compound 2 pharmacodynamics in plasma and CSF were assessed by mean percent change in GL-1 levels from baseline through Week 4. GL-1 levels were assessed in plasma and CSF samples collected at the day of randomisation and Week 4, with plasma GL-1 levels also assessed at Week 2.
Concentrations of GL-1 in plasma and CSF were determined using a liquid chromatography tandem mass spectrometry method. Secondary pharmacokinetic outcomes were evaluated over a 4-week period of once-daily Compound 2 dosing (Table 7).

[1] = Japan, High 15 mg once daily oral, n = 3
[2] = Japan, Low 4 mg once daily oral, n = 3
[3] = Japan, Mid 8 mg once daily oral, n = 3
[4] = ROW, High 15 mg once daily oral, n = 4, CSF sample not collected for 1 participant
[5] = ROW, Low 4 mg once daily oral, n = 4
[6] = ROW, Mid 8 mg once daily oral, n = 5

Structure (SMILES): CC(C)(NC(=O)O[C@@H]1CN2CCC1CC2)c1csc(-c2ccc(F)cc2)n1 [Compound 2, (S)-quinuclidin-3-yl (2-(2-(4-fluorophenyl)thiazol-4-yl)propan-2-yl)carbamate]
- CSF GL-1, Week 4 (mean) [1]: 2.770 ng/mL
- CSF GL-1, Week 4, Change from baseline (%) (mean) [1]: −72.0%
- CSF GL-1, Week 4, Change from baseline (mean) [1]: -6.663 ng/mL
- CSF GL-1, Week 4 (mean) [2]: 3.843 ng/mL
- CSF GL-1, Week 4, Change from baseline (%) (mean) [2]: −21.7%
- CSF GL-1, Week 4, Change from baseline (mean) [2]: -1.733 ng/mL
- CSF GL-1, Week 4 (mean) [3]: 3.027 ng/mL
- CSF GL-1, Week 4, Change from baseline (%) (mean) [3]: −67.0%
- CSF GL-1, Week 4, Change from baseline (mean) [3]: -5.023 ng/mL
- mean reduction in CSF GL-1 at Week 4 (Japanese cohort, high-dose 15 mg): 72.0%
- mean reduction in CSF GL-1 at Week 4 (Japanese cohort, low-dose 4 mg): 21.7%
- mean reduction in CSF GL-1 at Week 4 (Japanese cohort, medium-dose 8 mg): 67.0%
- mean reduction in CSF GL-1 at Week 4 (ROW participants, high-dose 15 mg): 74.3%
- mean reduction in CSF GL-1 at Week 4 (ROW participants, low-dose 4 mg): 41.0%
- mean reduction in CSF GL-1 at Week 4 (ROW participants, medium-dose 8 mg): 58.0%
- CSF GL-1, Week 4 (mean) [4]: 1.623 ng/mL
- CSF GL-1, Week 4, Change from baseline (%) (mean) [4]: −74.3%
- CSF GL-1, Week 4, Change from baseline (mean) [4]: -5.250 ng/mL
- CSF GL-1, Week 4 (mean) [5]: 4.315 ng/mL
- CSF GL-1, Week 4, Change from baseline (%) (mean) [5]: −41.0%
- CSF GL-1, Week 4, Change from baseline (mean) [5]: -2.433 ng/mL
- CSF GL-1, Week 4 (mean) [6]: 4.406 ng/mL
- CSF GL-1, Week 4, Change from baseline (%) (mean) [6]: −58.0%
- CSF GL-1, Week 4, Change from baseline (mean) [6]: -6.376 ng/mL
- decrease in CSF GL-1 levels from baseline (highest dose (15 mg), Japanese and ROW cohorts): 72.0%-74.3%
- brain penetration (oral administration, indicated by CSF GL-1 decrease): brain-penetrant on oral administration
- decrease of CSF GL-1 levels from baseline versus dose (over 4 weeks): dose-dependent manner
